# Values of other authors, collected in patent US20040115233A1, “Composition for improving skin environment and clothes thereof” (priority 2001, published 2004).
# Columns and labels:
# microorganisms = settings: among components of tea tree oil
# [1] = test system: patients with atopic diseases
Compound,antibacterial action (microorganisms),alleviating itching ([1]; patients with mild to medium atopic diseases (127 children and 240 adults)),serious cases in which the disease was improved ([1]; serious cases)
Cc1ccc(C(C)C)cc1 [paracimene],some antibacterial actions,,
CC1=CCC(C(C)C)=CC1 [γ-terpinene],some antibacterial actions,,
CC1=CC=C(C(C)C)CC1 [α-terpinene],some antibacterial actions,,
"CCCCCC=CCC=CCC=CCCCCC(=O)O [γ-linolenic acid, 6,9,12-octadecatrienic acid]",,effective for alleviating itching,116 of 179
CC1=CCC(C(C)(C)O)CC1 (stereo not drawn) [α-terpineol],some antibacterial actions,,
